Measured values as given in patent publication US20080262040A1, “Chemical Compounds” (SMITHKLINE BEECHAM CORPORATION, priority 2005, published 2008).

Molecular target: T1, Recombinant human IKKβ (residues 1-737) (IKK2) (Homo sapiens, UniProt O14920)
T1 construct: Recombinant human IKKβ (residues 1-737) was expressed in baculovirus; GST (C); made in house
T1 sequence (O14920 1-737): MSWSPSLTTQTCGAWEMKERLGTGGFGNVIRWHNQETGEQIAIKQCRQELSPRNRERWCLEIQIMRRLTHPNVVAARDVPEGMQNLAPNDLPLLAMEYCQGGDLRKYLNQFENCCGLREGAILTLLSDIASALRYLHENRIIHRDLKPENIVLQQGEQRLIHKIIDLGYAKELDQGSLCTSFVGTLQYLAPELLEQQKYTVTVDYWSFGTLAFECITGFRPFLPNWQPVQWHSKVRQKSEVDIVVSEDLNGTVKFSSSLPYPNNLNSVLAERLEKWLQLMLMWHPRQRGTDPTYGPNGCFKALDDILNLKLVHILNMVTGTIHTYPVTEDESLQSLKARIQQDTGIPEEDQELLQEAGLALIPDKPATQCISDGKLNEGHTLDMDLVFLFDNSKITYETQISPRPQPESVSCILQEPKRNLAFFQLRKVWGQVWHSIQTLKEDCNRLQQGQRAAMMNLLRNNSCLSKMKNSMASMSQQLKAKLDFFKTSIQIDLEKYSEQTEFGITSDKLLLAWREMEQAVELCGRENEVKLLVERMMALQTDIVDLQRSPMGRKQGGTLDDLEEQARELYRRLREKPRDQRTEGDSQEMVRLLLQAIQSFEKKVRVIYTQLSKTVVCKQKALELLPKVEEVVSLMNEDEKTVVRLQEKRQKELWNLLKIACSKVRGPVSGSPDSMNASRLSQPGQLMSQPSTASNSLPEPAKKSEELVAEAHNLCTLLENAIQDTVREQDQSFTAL
Experiment: IKK2 TR-FRET assay
Assay type: biochemical
Conditions: IKK2 5 nM, GST-IκBα 25 nM, ATP 1 μM, 30 minutes at room temperature, read-out: pIC50 against IKK2 (converted)
Procedure: Recombinant human IKKβ (residues 1-737) was expressed in baculovirus as a C-terminal GST-tagged fusion protein, and its activity was assessed using a time-resolved fluorescence resonance energy transfer (TR-FRET) assay. Briefly, IKK2 (5 nM final) diluted in assay buffer (50 mM HEPES, 10 mM MgCl2, 1 mM CHAPS pH 7.4 with 1 mM DTT and 0.01% w/v BSA) was added to wells containing various concentrations of compound or DMSO vehicle (3% final). The reaction was initiated by the addition of GST-IκBα substrate (25 nM final)/ATP (1 μM final), in a total volume of 30 μl. The reaction was incubated for 30 minutes at room temperature, then terminated by the addition of 15 μl of 50 mM EDTA. Detection reagent (15 μl) in buffer (100 mM HEPES pH 7.4, 150 mM NaCl and 0.1% w/v BSA) containing antiphosphoserine-IκBα-32/36 monoclonal antibody 12C2 (Cell Signalling Technology, Beverly Mass., USA) labelled with W-1024 europium chelate (Wallac O Y, Turku, Finland), and an APC-labelled anti-GST antibody (Prozyme, San Leandro, Calif., USA) was added and the reaction was further incubated for 60 minutes at room temperature. The degree of phosphorylation of GST-IκBα was measured using a Packard Discovery plate reader (Perkin-Elmer Life Sciences, Pangbourne, UK) as a ratio of specific 665 nm energy transfer signal to reference europium 620 nm signal.

**Q.** Which IC50 does the source give for CC(C)(C)OC(=O)N1CCC(n2ncc3c(C(N)=O)cc(-c4ccccc4)cc32)CC1 [Example 1, 1,1-dimethylethyl-4-[4-(aminocarbonyl)-6-phenyl-1H-indazol-1-yl]-1-piperidinecarboxylate] here?
**A.** The IC50 was ≤ 10 µM.

**Q.** With CCC(=O)N1CCCC(n2ncc3c(C(N)=O)cc(-c4ccccc4)cc32)C1 (stereo not shown) [Example 16, 6-phenyl-1-(1-propanoyl-3-piperidinyl)-1H-indazole-4-carboxamide] as the molecule, how does the IC50 read?
**A.** Its IC50 is > 15.8 µM.

**Q.** How did the IC50 turn out when Cn1cnc(S(=O)(=O)N2CCC(n3ncc4c(C(N)=O)cc(-c5ccccc5)cc43)CC2)c1 [Example 5, 1-{1-[(1-methyl-1H-imidazol-4-yl)sulfonyl]-4-piperidinyl}-6-phenyl-1H-indazole-4-carboxamide] was run?
**A.** The IC50 was ≤ 10 µM.

**Q.** With NC(=O)c1cc(-c2ccccc2)cc2c1cnn2C1CCCN(S(=O)(=O)c2ccc(F)cc2)C1 (stereo not shown) [Example 19, 1-{1-[(4-fluorophenyl)sulfonyl]-3-piperidinyl}-6-phenyl-1H-indazole-4-carboxamide] as the molecule, how does the IC50 read?
**A.** Its IC50 is > 15.8 µM.

**Q.** With CCC(=O)N1CCC(n2ncc3c(C(N)=O)cc(-c4ccccc4)cc32)CC1 [Example 6, 6-phenyl-1-(1-propanoyl-4-piperidinyl)-1H-indazole-4-carboxamide] as the molecule, how does the IC50 read?
**A.** The IC50 was ≤ 10 µM.

**Q.** For NC(=O)c1cc(-c2ccccc2)cc2c1cnn2C1CCCN(S(=O)(=O)c2ccccc2)C1 (stereo not shown) [Example 18, 6-phenyl-1-[1-(phenylsulfonyl)-3-piperidinyl]-1H-indazole-4-carboxamide], which IC50 is on record?
**A.** The IC50 was > 15.8 µM.

**Q.** Which IC50 does the source give for CCS(=O)(=O)N1CCC(n2ncc3c(C(N)=O)cc(-c4ccccc4)cc32)CC1 [Example 7, 1-[1-(ethylsulfonyl)-4-piperidinyl]-6-phenyl-1H-indazole-4-carboxamide] here?
**A.** Its IC50 is ≤ 10 µM.

**Q.** For Cn1cnc(S(=O)(=O)N2CCCC(n3ncc4c(C(N)=O)cc(-c5ccccc5)cc43)C2)c1 (stereo not shown) [Example 15, 1-{1-[(1-methyl-1H-imidazol-4-yl)sulfonyl]-3-piperidinyl}-6-phenyl-1H-indazole-4-carboxamide], which IC50 is on record?
**A.** Its IC50 is > 15.8 µM.

**Q.** How did the IC50 turn out when NC(=O)c1cc(-c2ccccc2)cc2c1cnn2C1CCCN(C(=O)c2ccccc2)C1 (stereo not shown) [Example 17, 6-phenyl-1-[1-(phenylcarbonyl)-3-piperidinyl]-1H-indazole-4-carboxamide] was run?
**A.** The IC50 was > 15.8 µM.

**Q.** NC(=O)c1cc(-c2ccccc2)cc2c1cnn2C1CCNCC1 [Example 2, 6-phenyl-1-(4-piperidinyl)-1H-indazole-4-carboxamide] was tested. Which IC50 did it give?
**A.** Its IC50 is ≤ 10 µM.

**Q.** For CCS(=O)(=O)N1CCCC(n2ncc3c(C(N)=O)cc(-c4ccccc4)cc32)C1 (stereo not shown) [Example 14, 1-[1-(ethylsulfonyl)-3-piperidinyl]-6-phenyl-1H-indazole-4-carboxamide], which IC50 is on record?
**A.** Its IC50 is ≤ 10 µM.

**Q.** NC(=O)c1cc(-c2ccccc2)cc2c1cnn2C1CCN(S(=O)(=O)c2ccccc2)CC1 [Example 9, 6-phenyl-1-[1-(phenylsulfonyl)-4-piperidinyl]-1H-indazole-4-carboxamide] was tested. Which IC50 did it give?
**A.** Its IC50 is ≤ 10 µM.

**Q.** With CC(C)(C)OC(=O)N1CCCC(n2ncc3c(C(N)=O)cc(-c4ccccc4)cc32)C1 (stereo not shown) [Example 12, 1,1-dimethylethyl-3-[4-(aminocarbonyl)-6-phenyl-1H-indazol-1-yl]-1-piperidinecarboxylate] as the molecule, how does the IC50 read?
**A.** Its IC50 is ≤ 10 µM.

**Q.** Which IC50 does the source give for NC(=O)c1cc(-c2ccccc2)cc2c1cnn2C1CCN(C(=O)c2ccccc2)CC1 [Example 8, 6-phenyl-1-[1-(phenylcarbonyl)-4-piperidinyl]-1H-indazole-4-carboxamide] here?
**A.** Its IC50 is ≤ 10 µM.

**Q.** Which IC50 does the source give for NC(=O)c1cc(-c2ccccc2)cc2[nH]ncc12 [Example 3, 6-phenyl-1H-indazole-4-carboxamide] here?
**A.** Its IC50 is ≤ 10 µM.

**Q.** With NC(=O)c1cc(-c2ccccc2)cc2c1cnn2C1CCN(S(=O)(=O)c2ccc(F)cc2)CC1 [Example 4, 1-{1-[(4-fluorophenyl)sulfonyl]-4-piperidinyl}-6-phenyl-1H-indazole-4-carboxamide] as the molecule, how does the IC50 read?
**A.** The IC50 was ≤ 10 µM.
